Legend:
Assay type in all cases: cell-based, human
Conditions in all cases: 50 ng/ml
CD8+ immune cells = test: Immune Cell Stimulation Assay Method (CD69 expression, flow cytometry), CD8+
Procedure: (§1) Each immunostimulation assay uses a Becton Dickinson FACScan flow cytometer to quantify immune cell activity. The specific protocol for measuring such activity utilizes freshly drawn human blood collected in sodium heparin to 200 μL. Echinacea extract is added in a desired concentration after being mixed with 50 μL of phosphate buffer. The blood and Echinacea mixture is vortexed and incubated at 37° C. for 5 hours to allow adequate time for immune cell stimulation.
(§2) Positive controls consist of PMA (50 ng/ml), PHA ([…]), or CD2/CD2R (5 μL/250 μL) and negative controls consist of DMSO (2% in RPMI), RPMI, and cyclosporin A (10 μg/ml). For staining, 20 μL of reagent cocktail (CD4FITC/CD69PE/CD3PerCP (expressed on the helper/inducer T-lymphocyte subset and is the primary receptor for HIV); CD8FITC/CD69PE/CD3PerCP (expressed on the human suppressor/cytotoxic T-lymphocytes and on a subset of natural killer lymphocytes); CD19FITC/CD69PE/CD45PerCP (expressed on B-lymphocytes); CD56FITC/CD69PE/CD45PerCP (expressed on NK lymphocytes), for examples) are used.
(§3) Following the cell stimulation period described above, solutions of fractions and constituents are compared quantitatively with the above-recited controls. […] The prepared samples are analyzed in the flow cytometer. […] Individual cell types are quantitated using appropriate stains and gating as known by those skilled in the art.

CD56+ cells = test: Immune Cell Stimulation Assay Method (CD69 expression, flow cytometry), CD56+
Procedure: as §1, §2, §3

CD4+ immune cells = test: Immune Cell Stimulation Assay Method (CD69 expression, flow cytometry), CD4+
Procedure: as §1, §2
Following the cell stimulation period described above, solutions of fractions and constituents are compared quantitatively with the above-recited controls. Next 50 μL of the stimulated blood samples are added to each of the tubes containing the reagent cocktail, vortexed and incubated at room temperature for 30 min. in the dark. Then 450 μL of 1× FACS lysing solution is added to each tube which is vortexed gently and incubated in the dark at room temp. for 20 min. The prepared samples are analyzed in the flow cytometer. CD69 (CD stands for cluster determinant) is the first […] expressed by any of these cells following stimulation and is produced on the surface of T-, B- and NK-lymphocytes. […] Individual cell types are quantitated using appropriate stains and gating as known by those skilled in the art.

CD19+ cells = test: Immune Cell Stimulation Assay Method (CD69 expression, flow cytometry), CD19+
Procedure: as §1, §2, §3

## CCCCCCCCCCCCCC(=O)O[C@@H]1[C@@H](C)[C@@]2(O)[C@@H](C=C(CO)C[C@]3(O)C(=O)C(C)=C[C@@H]23)[C@@H]2C(C)(C)[C@]12OC(C)=O [PMA]
CD8+ immune cells; Table 7
  CD8+ stimulation, positive control: 99.04%
CD8+ immune cells; Table 8
  CD8+ stimulation, positive control: 98.320%
CD56+ cells; Table 7
  CD56+ stimulation, positive control: 94.14%
CD56+ cells; Table 8
  CD56+ stimulation, positive control: 94.940%
CD4+ immune cells; Table 2
  CD4+ stimulation, positive control: 99.16%
CD4+ immune cells; Table 3
  CD4+ stimulation, positive control: 99.16%
CD4+ immune cells; Table 4
  CD4+ stimulation, positive control: 99.20%
CD4+ immune cells; Table 7
  CD4+ stimulation, positive control: 99.42%
CD4+ immune cells; Table 8
  CD4+ stimulation, positive control: 98.770%
CD19+ cells; Table 7
  CD19+ stimulation, positive control: 97.68%
CD19+ cells; Table 8
  CD19+ stimulation, positive control: 98.820%
